Values of other authors, collected in US6984402B2, “Chrono delivery formulations and method of treating atrial fibrillation” (Elite Laboratories, Inc., priority 2000, dated 2006).

half-life in blood (humans): 3 to 4 h | absolute bioavailability (oral, compared with intravenous administration): 40%
SMILES: COc1ccc([C@@H]2Sc3ccccc3N(CCN(C)C)C(=O)[C@@H]2OC(C)=O)cc1 [diltiazem]
